Consider seven molecules from paper PMC5753150 (Beilstein Journal of Organic Chemistry, 2017).

“Also recorded” adds a separate entry of the source. *1 amine or outer side, *2 acyl side, *3 side chain or, on linkers, in order; H or OH if unused. Where a SMILES comes first, the peptide text is derived from it. [ ]: non-standard residue; d: D form. Leu(5,5,5,5',5',5'-F6) = N[C@@H](CC(C(F)(F)F)C(F)(F)F)C(=O)O; X1 = C[C@@H](CC(F)(F)F)[C@H](N[*:1])C(=O)[*:2]; 2Abz = Nc1ccccc1C(=O)O

Series [1] concerns the target elastase (EC 3.4.21.36) (Sus scrofa, UniProt P00772). The method, then: (§1) The course of proteolytic digestion was characterized by an analytical HPLC-assay with fluorescence detection. For quantification of substrate degradation, integration of the corresponding HPLC peak was conducted. Cleavage products were identified by ESI–ToF mass spectrometry (see Supporting Information File 1, Tables S4–S7).
(§2) All peptides employed in the degradation studies were used as the TFA salts obtained after lyophilization. Stock solutions of α-chymotrypsin (from bovine pancreas, EC 3.4.21.1, ≥40.0 units/mg of protein, Sigma Aldrich, St. Louis, MO, USA), and pepsin (from porcine stomach mucosa, EC 3.4.23.1, ≥250 units/mg of protein, Sigma Aldrich, St. Louis, MO, USA) were prepared at concentrations of 1 mg/mL in phosphate buffer (10 mM, pH 7.4), or in acetate buffer (10 mM, pH 4.0), respectively. For proteinase K (from tritirachium album, EC 3.4.21.64, ≥30 units/mg of protein, Sigma Aldrich, St. Louis, MO, USA) and elastase (from porcine pancreas, EC 3.4.21.36, 6.2 units/mg of protein, Sigma Aldrich, St. Louis, MO, USA) stock solutions were prepared also at concentrations of 1 mg/mL in tris/HCl (50 mM) + CaCl2 (10 mM) buffer (pH 7.5), or in tris/HCl buffer (100 mM, pH 8.4), respectively. Peptides (0.002 mmol) were prepared as stocks in DMSO (100 µL) and incubated with the respective enzyme at 30 °C (for α-chymotrypsin and pepsin) or 37 °C (for proteinase K and elastase) with shaking at 300 rpm in a thermomixer over a period of 24 h. The reaction mixture consisted of DMSO (15 µL), corresponding buffer (25 µL), peptide solution (5 µL) and the corresponding enzyme solution (5 µL). […] Aliquots of 5 µL were taken at fixed time points (0, 15, 30, 60, 90, 120 min as well as 3 h and 24 h) and either quenched with ACN containing 0.1% (v/v) TFA (95 µL), in the case of α-chymotrypsin, proteinase K and elastase, or 2% aqueous ammonia (95 µL), in the case of pepsin. All samples were subjected to analytical HPLC on a LaChrom-ELITE-HPLC-System equipped with a fluorescence detector (VWR International Hitachi, Darmstadt, Germany). A monolithic reversed-phase C8 Chromolith® Performance HPLC column (100 × 4.6 mm, Merck KGaA, Darmstadt, Germany) was used to resolve and quantify the products of digestion. The used system and gradients are described in detail in Supporting Information File 1. Detection based on the Abz label was carried out using a fluorescence detector with λex = 320 nm and λem = 420 nm. In all cases, the peaks corresponding to the starting materials (full-length peptides) or the N-terminal fragments (products) were integrated and used to determine the velocity of the reaction (see Supporting Information File 1). […] Each fragment cleaved from the full-length peptide was identified by ESI–ToF mass analysis on an Agilent 6220 ESI–ToF–MS spectrometer (Agilent Technologies, Santa Clara, CA, USA, see Supporting Information File 1). All experiments were performed in triplicate.
(§3) 2130) with solvent degasser, an autosampler (L-2200) with a 100 µL sample loop, a diode array flow detector (L-2455), a fluorescence detector (L-2485) and a high pressure gradient mixer. As eluents water and ACN, both containing 0.1% (v/v) TFA were used, and a flow rate of 3 mL/min was applied. The used linear gradients are […]
(§4) For the non-fluorinated peptides method A was used to follow the digestion process, and for the fluorinated peptides method B was applied. For […]
(§5) The obtained data were analyzed with EZChrom Elite software
(§6) (version 3.3.2, Agilent Technologies, Santa Clara, CA, USA).

The target in series [2] is pepsin (EC 3.4.23.1) (Sus scrofa, UniProt P00791). The series is described as follows: in vitro. Conditions: for Percentage of substrate remaining after incubation for 24 h: pepsin (porcine stomach mucosa), 10 mM acetate buffer pH 4.0 with DMSO, 30 °C, FL-RP-HPLC peak integration (Abz, λex 320/λem 420 nm), average of three independent measurements. The method, then:
as §1, §2, §3, §4, §5, §6

Series [3] deals with T1, α-chymotrypsin (EC 3.4.21.1) (Bos taurus, UniProt P00766).
T1 construct: purchased Sigma Aldrich; host or cells: bovine pancreas
Description: Protease digestion assay with α-chymotrypsin (FL-RP-HPLC). Type of series: in vitro ADME, bovine. Conditions: for Gain in proteolytic stability upon fluorination compared to the non-fluorinated (Leu or Ile) analogue / Proteolytic stability compared to control peptide FA after 120 min / Proteolytic stability compared to control peptide FA after 24 h: α-chymotrypsin, 10 mM phosphate buffer pH 7.4, 30 °C, FL-RP-HPLC; for Gain in proteolytic stability upon fluorination compared to the non-fluorinated (Leu or Ile) analogue: after 24 h; for Percentage of substrate remaining after incubation for 24 h: α-chymotrypsin (bovine pancreas), 10 mM phosphate buffer pH 7.4 with DMSO, 30 °C, FL-RP-HPLC peak integration (Abz, λex 320/λem 420 nm), average of three independent measurements; for Proteolytic stability compared to control peptide FA after 120 min / Proteolytic stability compared to control peptide FA after 24 h: three independent measurements. The method, then: (§7) The FA peptide was used as a reference. […] All experiments were performed in triplicate.
(§8) The used linear gradients are
(§9) chromatograms where an insufficient baseline separation was observed,
(§10) (proteinase K)]. The obtained data were analyzed with EZChrom Elite software
(§11) Method Time [min] Water + 0.1% (v/v) TFA [%] ACN + 0.1% (v/v) TFA [%]

Series [4] in a line: in vitro. Conditions: pig, pepsin from porcine stomach mucosa, pH 4. The method, then: as §1, §2, §3, §4, §5, §6
The target of series [5] is T2, proteinase K (EC 3.4.21.64) (Parengyodontium album, UniProt P06873).
T2 construct: purchased Sigma Aldrich; host or cells: Tritirachium album
The series is described as follows: Protease digestion assay with proteinase K (FL-RP-HPLC). Conditions: for Gain in stability upon fluorination compared to the non-fluorinated analogue, 120 min: after 120 min. Type of series: in vitro ADME, tritirachium album. The procedure: as §7, §8, §9, §10, §11

Setting [6] is: pepsin, 10 mM acetate buffer pH 4.0, 30 °C, 120 min, FL-RP-HPLC.
[7] abbreviates: pepsin, 10 mM acetate buffer pH 4.0, 30 °C, after 24 h.
The mark [8] stands for this setting: proteinase K, 50 mM Tris/HCl + 10 mM CaCl2 pH 7.5, 37 °C.
Setting [9] is: proteinase K, 50 mM Tris/HCl + 10 mM CaCl2 pH 7.5, 37 °C, 120 min, FL-RP-HPLC.
[10] abbreviates: elastase (porcine pancreas), 100 mM Tris/HCl buffer pH 8.4 with DMSO, 37 °C, FL-RP-HPLC, mean of three independent measurements.

Chain of pepsin (EC 3.4.23.1) (P00791 60-385): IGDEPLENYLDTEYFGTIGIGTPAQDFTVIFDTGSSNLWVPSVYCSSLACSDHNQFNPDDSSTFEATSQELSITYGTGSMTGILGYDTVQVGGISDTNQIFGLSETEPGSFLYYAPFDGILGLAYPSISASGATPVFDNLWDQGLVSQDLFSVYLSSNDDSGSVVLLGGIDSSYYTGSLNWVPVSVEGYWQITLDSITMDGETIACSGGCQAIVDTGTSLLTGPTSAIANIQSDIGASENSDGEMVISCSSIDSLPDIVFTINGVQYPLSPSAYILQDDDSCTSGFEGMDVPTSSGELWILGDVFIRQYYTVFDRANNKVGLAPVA
Chain of elastase (EC 3.4.21.36) (P00772 27-266): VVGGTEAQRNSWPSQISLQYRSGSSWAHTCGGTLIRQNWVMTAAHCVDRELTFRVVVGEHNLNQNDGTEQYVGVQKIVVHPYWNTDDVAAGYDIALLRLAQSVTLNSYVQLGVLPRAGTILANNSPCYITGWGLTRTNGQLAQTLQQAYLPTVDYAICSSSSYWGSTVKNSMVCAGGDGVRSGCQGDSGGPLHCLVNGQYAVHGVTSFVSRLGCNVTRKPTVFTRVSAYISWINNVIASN
T2 sequence (P06873 106-384): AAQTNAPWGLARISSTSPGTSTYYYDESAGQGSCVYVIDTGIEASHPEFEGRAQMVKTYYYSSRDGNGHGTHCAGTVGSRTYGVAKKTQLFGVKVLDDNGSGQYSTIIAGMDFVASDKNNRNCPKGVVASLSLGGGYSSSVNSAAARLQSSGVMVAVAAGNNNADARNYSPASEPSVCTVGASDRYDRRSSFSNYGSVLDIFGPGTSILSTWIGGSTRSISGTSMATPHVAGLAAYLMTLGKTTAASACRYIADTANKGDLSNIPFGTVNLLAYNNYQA

`C[C@H](NC(=O)[C@H](C)NC(=O)[C@H](CC(C(F)(F)F)C(F)(F)F)NC(=O)[C@H](Cc1ccccc1)NC(=O)[C@H](C)NC(=O)[C@H](C)NC(=O)[C@H](CCCCN)NC(=O)c1ccccc1N)C(=O)N[C@@H](C)C(=O)N[C@@H](CCCCN)C(=O)O` [P1’-HfLeuFA] (H-[2Abz]KAAF[Leu(5,5,5,5',5',5'-F6)]AAAK-OH): the “Proteolytic stability compared to control peptide FA after 24 h” value in series [1] (elastase, 100 mM Tris/HCl buffer pH 8.4, 37 °C, 24 h, FL-RP-HPLC) is on record as “more stable than the control peptide FA”; in series [2] (pepsin, 10 mM acetate buffer pH 4.0, 30 °C, 24 h, FL-RP-HPLC) it was “somewhat more stable than the control FA”. For the same molecule, the “Gain in stability upon fluorination compared to the non-fluorinated (Leu or Ile) analogue, 24 h” value in series [1] (elastase, 100 mM Tris/HCl buffer pH 8.4, 37 °C, after 24 h) worked out at 85%. The “Proteolytic stability compared to control peptide FA after 120 min” value in series [2] (setting [6]) was “same persistence”. For the same molecule, the “Stabilization upon fluorination compared to the non-fluorinated analogue, 120 min” value in series [2] (pepsin, 10 mM acetate buffer pH 4.0, 30 °C, after 120 min) is listed as “about 20%”. Further, in series [2] (setting [7]), the “Destabilization compared to the hydrocarbon analogue, 24 h” value came out at 17%. In series [3], the “Gain in proteolytic stability upon fluorination compared to the non-fluorinated (Leu or Ile) analogue” value was “better substrate than the non-fluorinated Leu peptide”.

In turn, `C[C@H](NC(=O)[C@H](C)NC(=O)[C@H](C)NC(=O)[C@H](Cc1ccccc1)NC(=O)[C@H](CC(C(F)(F)F)C(F)(F)F)NC(=O)[C@H](C)NC(=O)[C@H](CCCCN)NC(=O)c1ccccc1N)C(=O)N[C@@H](C)C(=O)N[C@@H](CCCCN)C(=O)O` [P2-HfLeuFA] (H-[2Abz]KA[Leu(5,5,5,5',5',5'-F6)]FAAAAK-OH) displayed a gain in stability vs non-fluorinated analogue after 24 h of 19%. Also, in series [3], the “Percentage of substrate remaining after incubation for 24 h” value (shortened to “Percentage of substrate remaining”) is “not digested at all” and the “Gain in proteolytic stability upon fluorination compared to the non-fluorinated (Leu or Ile) analogue” value is recorded as about 100%.

One may read the amount remaining as what is left of the initial amount, in per cent. A high value points to less turnover. The molecule `C[C@H](NC(=O)[C@H](C)NC(=O)[C@H](C)NC(=O)[C@H](Cc1ccccc1)NC(=O)[C@@H](NC(=O)[C@H](C)NC(=O)[C@H](CCCCN)NC(=O)c1ccccc1N)[C@@H](C)CC(F)(F)F)C(=O)N[C@@H](C)C(=O)N[C@@H](CCCCN)C(=O)O` [P2-TfIleFA] (H-[2Abz]KA[X1]FAAAAK-OH) yielded a gain in stability vs non-fluorinated analogue after 24 h of 35%. In addition, in series [2] (setting [7]), the “Gain in proteolytic stability upon fluorination compared to the non-fluorinated analogue, 24 h” value is listed as 100%. Further, the amount remaining at 24 h, 2 mM in series [4] was 100%. Besides, in series [3], the “Percentage of substrate remaining” value is given as “not digested at all” and the “Gain in proteolytic stability upon fluorination compared to the non-fluorinated (Leu or Ile) analogue” value stood at 50%. Further, the “Percentage of substrate remaining” value in series [5] (proteinase K (tritirachium album), 50 mM Tris/HCl buffer containing 10 mM CaCl2 pH 7.5 with DMSO, 37 °C, 24 h, FL-RP-HPLC peak integration (Abz fluorescence), mean of three independent measurements) is on record as “still left; also recorded: remarkably stable”. Besides, the “Gain in stability upon fluorination compared to the non-fluorinated analogue, 120 min” value in series [5] (setting [8]) is listed as 60%.

On to `C[C@H](NC(=O)[C@H](C)NC(=O)[C@H](CC(C(F)(F)F)C(F)(F)F)NC(=O)[C@H](C)NC(=O)[C@H](Cc1ccccc1)NC(=O)[C@H](C)NC(=O)[C@H](C)NC(=O)[C@H](CCCCN)NC(=O)c1ccccc1N)C(=O)N[C@@H](CCCCN)C(=O)O` [P2’-HfLeuFA] (H-[2Abz]KAAFA[Leu(5,5,5,5',5',5'-F6)]AAK-OH), for which the “Peptide digested (hydrolysis) after 120 min” value in series [2] (pepsin, 10 mM acetate buffer pH 4.0, 30 °C, 120 min, FL-RP-HPLC, enzyme concentration optimized to about 40% hydrolysis of FA) was “up to 5%”. In series [4], this molecule yielded a share remaining at 24 h, 2 mM of about 76%. Also, in series [3], the “Percentage of substrate remaining” value was “up to 44%” and the “Proteolytic stability compared to control peptide FA after 120 min” value was “more stable against digestion”. Further, the “Degradation state after incubation for 120 min” value (from here on “Degradation state”) in series [5] (setting [9]) is reported as “almost completely degraded”.

On to `CC[C@H](C)[C@H](NC(=O)[C@H](C)NC(=O)[C@H](Cc1ccccc1)NC(=O)[C@H](C)NC(=O)[C@H](C)NC(=O)[C@H](CCCCN)NC(=O)c1ccccc1N)C(=O)N[C@@H](C)C(=O)N[C@@H](C)C(=O)N[C@@H](CCCCN)C(=O)O` [P2’-IleFA] (H-[2Abz]KAAFAIAAK-OH), for which the “Degradation state” value in series [1] (setting [10]) is given as “somewhat digested”. The “Percentage of substrate remaining” value is “almost complete proteolysis” in series [1] (elastase (porcine pancreas), 100 mM Tris/HCl buffer pH 8.4 with DMSO, 37 °C, 24 h, FL-RP-HPLC peak integration (Abz fluorescence), mean of three independent measurements) and “completely digested” in series [2] (24 h). Also, the “Proteolytic stability compared to control peptide FA after 120 min” value in series [2] (setting [6]) is on record as “degraded faster than the control FA”; in series [3], “more stable against digestion”; in series [5] (setting [9]) it was “as stable as FA”. For the same molecule, the “Proteolytic stability compared to control peptide FA after 24 h” value in series [3] is listed as “accelerated proteolysis compared to FA”.

With `CC(C)C[C@H](NC(=O)[C@H](C)NC(=O)[C@H](Cc1ccccc1)NC(=O)[C@H](C)NC(=O)[C@H](C)NC(=O)[C@H](CCCCN)NC(=O)c1ccccc1N)C(=O)N[C@@H](C)C(=O)N[C@@H](C)C(=O)N[C@@H](CCCCN)C(=O)O` [P2’-LeuFA] (H-[2Abz]KAAFALAAK-OH), in series [1] (setting [10]), the “Degradation state” value is “somewhat digested”. Besides, the “Proteolytic stability compared to control peptide FA after 120 min” value in series [2] (setting [6]) is listed as “degraded faster than the control FA”; in series [3], “more stable against digestion”. Moreover, the “Proteolytic stability compared to control peptide FA after 24 h” value in series [3] was “accelerated proteolysis compared to FA”.

As to “Abz-KAAFATfIleAAK [P2’-TfIleFA, FA variant with 5,5,5-trifluoroisoleucine at position P2’]”, in series [1] (setting [10]), the “Degradation state” value is “somewhat digested”. Besides, the “Percentage of substrate remaining” value in series [2] (24 h) is listed as “completely digested”. In addition, the “Proteolytic stability compared to control peptide FA after 120 min” value in series [2] (setting [6]) is reported as “degraded faster than the control FA”. In addition, the “Gain in stability upon fluorination compared to the non-fluorinated analogue, 120 min” value in series [5] (setting [8]) is recorded as “around 12%”.
